Measured values: patent US20240141291A1, “FUNCTIONAL BRAIN REGION-SPECIFIC NEURAL SPHEROIDS AND METHODS OF USE” (THE UNITED STATES OF AMERICA, AS REPRESENTED BY THE …, priority 2021, published 2024)
Entries after “also recorded” stand apart in the source; their conditions may differ.

Experiments:
Type in all cases: cell-based, human
VTA-like spheroids [1] = assay: FLIPR calcium activity with Cal6 dye, control compounds / DAMGO (Example 3); conditions: VTA-like spheroids in Cal6 dye; 10 μM DAMGO; day 21
Procedure: (§1) Viruses and dyes: To assess calcium activity, the calcium dye, Cal6 (Molecular Devices), and genetically encoded calcium indicator, GCaMP6f (Addgene, cat #100836-AAV9) were used. Cal6 was used according to manufacturer's instructions and 10 mL of maintenance media was added to each vial. Two hours before activity was recorded, half of the spheroid media was exchanged for media with Cal6. The plates were covered in foil and placed in the incubator at 37° C. during the 2-hour (hr) incubation period. Since all viruses used were adeno-associated viruses (AAV), they were added to the media on day 7 to allow for 2-weeks expression prior to recording or testing. All viruses were added to the media at 2e5 multiplicity of infection (MOI). GCaMP6f infection occurred via an adeno-associated virus serotype 9 (AAV9) expressed under the CAG promoter for expression in both neurons and astrocytes. Designer receptors exclusively activated by designer drugs (DREADDs) viruses were used to stimulate and inhibit neuronal activity within spheroids. Both viruses were retrograde AAVs expressed under the human Synapsin promoter for expression in neurons and fused with an mCherry fluorophore. The DREADDs viruses either inserted the designer receptor hM4D(Gi), an inhibitory G-protein coupled receptor, or hM3D(Gq), a stimulatory G-protein coupled receptor. Clozapine-N-oxide (CNO, Tocris cat #4936) was suspended in dimethyl sulfoxide (DMSO) and used as the designer drug to activate the DREADDs viruses. CNO was tested at 1 and 10 μM, with data reported from the 1 μM concentration.
(§2) Fluorescent Imaging plate Reader (FLIPR): The FLIPR Penta (Molecular Devices) was used to assess calcium fluorescence across the 384-well plate simultaneously and to observe changes after treatment with compounds. The evening before calcium activity was measured, plates were sealed with parafilm and centrifuged at 1485×g for 2-min to get spheroids to the bottom of the well in a centered position. On the day of recording, the plate used for recording was placed in the read plate position inside of the FLIPR following the 2-hour Cal6 incubation at 37° C. Standard filter sets were used for Cal6 imaging with excitation set at 470-495 and emission at 515-575 nm. Fluorescent image reads were taken every 0.6 seconds for all plates, with exposure time of 0.03 and 50% excitation intensity. Recordings from the initial seven plates consisted of 1000 reads and were 10-min recordings with 2.5 gain, while the final two plates consisted of 500 reads (5-min recordings) with a gain of 2. Baseline recordings were taken across all plates and, if applicable, more recordings were obtained 1-, 30-, 60-, and/or 90-min after compound treatment. In between recordings, plates were wrapped in foil and placed back in the incubator at 37° C.
DAMGO was reconstituted in water at a 1 mM concentration and diluted in media to 20 µM such that spheroids would be treated with a final concentration of 10 μM after the half media exchange. Two aspects of OUD were modeled, chronic treatment along with opioid withdrawal. […]
384 Pin Tool: A 384 well pin tool (Rexroth) was used to transfer compounds simultaneously to the spheroid plate. […] Compound transfer via the 384 well pin tool occurred after the baseline recordings with the fluorescent imaging plate reader (FLIPR). […]

PFC-like spheroids [2] = assay: FLIPR calcium activity with Cal6 dye, control compounds / DAMGO / AD compounds (Example 3); conditions: 10 μM DAMGO; for effect on peak count and peak spacing: recording 30-min later, then naloxone
Procedure: as §1, §2
DAMGO was reconstituted in water at a 1 mM concentration and diluted in media to 20 µM such that spheroids would be treated with a final concentration of 10 μM after the half media exchange. Two aspects of OUD were modeled, chronic treatment along with opioid withdrawal. For spheroids subjected to chronic DAMGO treatment, 20 μM DAMGO in maintenance media was added via half media exchange beginning on day 10, with treatments occurring every other day for 10 days, giving a total of five treatments.
384 Pin Tool: A 384 well pin tool (Rexroth) was used to transfer compounds simultaneously to the spheroid plate. Prior to compound transfer, the pin tool went through four wash cycles where pins were rinsed with dimethyl sulfoxide (DMSO), followed by methanol, then deionized (DI) water, to ensure the pins were clean. Compound transfer via the 384 well pin tool occurred after the baseline recordings with the fluorescent imaging plate reader (FLIPR). Here, 60 nL of compound suspended in DMSO was transferred to 60 µL of media in each well, diluting the compounds by 1000-fold and giving a final DMSO concentration of 0.1%.

PFC-like spheroids [3] = assay: Confocal (Phenix Plus) calcium recordings, opioid use disorder model; conditions: PFC-like spheroids expressing GCaMP6f; 10 μM DAMGO; day 21
Procedure: (§3) Confocal Imaging: The Opera Phenix Plus High-Content Imaging System (Perkin Elmer) spinning disk confocal was used to record calcium activity from spheroids in individual wells. Prior to recording, the stage was pre-warmed to 37° C., and the carbon dioxide was set to 5%. Recordings were obtained both from spheroids expressing GCaMP6f along with those incubated in Cal6 dye. Recordings were captured with a 20× water immersion objective […] from the bottom of the well, and were obtained at a frame rate of 1.6 frames/sec with 480 frames total, making the recordings 5-min. The protocol was set to record well to well such that recordings were automated but taken from one spheroid at a time before recording from subsequent wells. […]
(§4) For peak detection data obtained from the Phenix Plus confocal microscope, image sequences were stored in and exported from Columbus Image Data Storage and Analysis as single plane TIFFs. […] Prior to peak detection analysis, the T-function, F div F0, in ImageJ was used to obtain calcium signals normalized to background fluorescence. […] The correlation matrix was used to describe how synchronous the calcium activity within a spheroid was, and a synchrony score was measured by calculating the average correlation coefficient across the matrix. […]

VTA-like spheroids [4] = assay: as above; conditions: VTA-like spheroids expressing GCaMP6f; 10 μM DAMGO; day 21
Procedure: as §3, §4

[5] = system: PFC-like and VTA-like spheroids; assay: 3D Cell Titer Glo spheroid viability; conditions: no DAMGO pre-treatment vs chronic DAMGO vs DAMGO withdrawal
Procedure: 3D Cell Titer Glo: To measure spheroid cell viability across disease models and after compound treatment, the CellTiter-Glo 3D Cell Viability Assay (Promega, cat #G9681) was used according to the manufacturer's instructions. CellTiter-Glo 3D Reagent was thawed overnight at 4° C. and brought to room temperature (RT) for 20-min before use. After the FLIPR assay, 30 μL of CellTiter-Glo 3D Reagent was added to the spheroid plate and was mixed by shaking for 5-min at RT followed by a 25-min incubation period off the shaker at RT (about 25° C.). Luminescence was read using a PHERAstar FSX microplate reader (BMG LabTech) to measure amount of ATP present, indicating metabolically active cells.

[6] = system: single neuron spheroids expressing hM3Dq or hM4Di; assay: Chemogenetic (DREADDs) activation with CNO, FLIPR calcium activity; conditions: 1 uM CNO
Procedure: Viruses and dyes: To assess calcium activity, the calcium dye, Cal6 (Molecular Devices), and genetically encoded calcium indicator, GCaMP6f (Addgene, cat #100836-AAV9) were used. Cal6 was used according to manufacturer's instructions and 10 mL of maintenance media was added to each vial. Two hours before activity was recorded, half of the spheroid media was exchanged for media with Cal6. The plates were covered in foil and placed in the incubator at 37° C. during the 2-hour (hr) incubation period. Since all viruses used were adeno-associated viruses (AAV), they were added to the media on day 7 to allow for 2-weeks expression prior to recording or testing. […]
Fluorescent Imaging plate Reader (FLIPR): The FLIPR Penta (Molecular Devices) was used to assess calcium fluorescence across the 384-well plate simultaneously and to observe changes after treatment with compounds. The evening before calcium activity was measured, plates were sealed with parafilm and centrifuged at 1485×g for 2-min to get spheroids to the bottom of the well in a centered position. On the day of recording, the plate used for recording was placed in the read plate position inside of the FLIPR following the 2-hour Cal6 incubation at 37° C. […] Fluorescent image reads were taken every 0.6 seconds for all plates, with exposure time of 0.03 and 50% excitation intensity. […]

Row | Compound | effect of chronic DAMGO / DAMGO withdrawal on baseline peak count, amplitude, width (FLIPR) (VTA-like spheroids [1]) | effect on peak count and peak spacing (PFC-like spheroids [2]; PFC-like chronic DAMGO-treated spheroids) | effect on peak count and peak spacing (PFC-like spheroids [2]; PFC-like control spheroids) | effect of chronic DAMGO / DAMGO withdrawal on baseline peak count, amplitude, width (FLIPR) (PFC-like spheroids [2]; PFC-like spheroids in Cal6 dye, day 21) | effect of chronic DAMGO / DAMGO withdrawal on baseline peak count, amplitude, width, synchrony (confocal) (PFC-like spheroids [3]) | effect of chronic DAMGO / DAMGO withdrawal on baseline peak count, amplitude, width, synchrony (confocal) (VTA-like spheroids [4]) | spheroid viability (3D CTG) [5] | effect of chemogenetic activation on peak parameters ([6]; spheroids with Dopa or Gluta composition expressing hM3Dq) | effect of chemogenetic inhibition on peak parameters ([6]; spheroids with Dopa or Gluta composition expressing hM4Di)
1 | C[C@@H](NC(=O)[C@@H](N)Cc1ccc(O)cc1)C(=O)NCC(=O)N(C)[C@@H](Cc1ccccc1)C(=O)NCCO [DAMGO, [D-Ala^2, N-MePhe^4, Gly-ol]-enkephalin] | chronic DAMGO treatment increased peak count in VTA-like spheroids; also recorded: unaffected in VTA-like spheroids; also recorded: reduced in VTA-like spheroids | chronic DAMGO-treated spheroids treated with either DMSO or DAMGO showed significant reductions in peak count | significant reduction in peak count was observed in control spheroids acutely treated with DAMGO; also recorded: acute DAMGO treatment in control spheroids increased peak spacing | peak count was reduced by chronic DAMGO in PFC-like spheroids; also recorded: Peak amplitude was reduced by DAMGO withdrawal in PFC-like spheroids; also recorded: peak width was increased by chronic DAMGO in PFC-like spheroids | peak count was reduced by chronic DAMGO treatment in PFC-like spheroids; also recorded: synchrony was unaffected in PFC-like spheroids; also recorded: DAMGO withdrawal reduced peak amplitude in VTA-like but not PFC-like spheroids; also recorded: Chronic DAMGO increased peak width in PFC-like but not VTA-like spheroids; also recorded: DAMGO withdrawal did not impact peak width in either spheroid type | increased by DAMGO withdrawal in VTA-like spheroids; also recorded: DAMGO withdrawal reduced peak amplitude in VTA-like but not PFC-like spheroids; also recorded: Chronic DAMGO increased peak width in PFC-like but not VTA-like spheroids; also recorded: DAMGO withdrawal did not impact peak width in either spheroid type; also recorded: DAMGO withdrawal reduced synchrony in VTA-like spheroids | spheroid viability was similar |  | 
2 | C[N+]1([O-])CCN(C2=Nc3cc(Cl)ccc3Nc3ccccc32)CC1 [CNO, Clozapine-N-oxide] |  |  |  |  |  |  |  | chemogenetic activation increased measures of peak frequency such as peak count and rate while reducing parameters such as peak spacing and peak width | the opposite was observed for these spheroids subjected to chemogenetic inhibition
